# According to PMC6332235, “Phosphonylated Acyclic Guanosine Analogues with the 1,2,3-Triazole Linker” (Molecules, 2015):
# Read-outs that look alike come from different tables or passages of the source.
# Experiments:
# [1] = system: murine leukemia L1210 cells; assay: Cytostatic activity: inhibition of proliferation of murine leukemia L1210 cells; assay type: cell-based
# Protocol: (§1) The cytotoxicity of the tested compounds toward the uninfected host cells was defined as the minimum cytotoxic concentration (MCC) that causes a microscopically-detectable alteration of normal cell morphology. The 50% cytotoxic concentration (CC50), causing a 50% decrease in cell viability, was determined using a colorimetric 3-(4,5-dimethylthiazol-2-yl)-5-(3-carboxymethoxyphenyl)-2-(4-sulfophenyl)-2H-tetrazolium (MTS) assay system. The cytostatic activity of the tested compounds was defined as the 50% cytostatic inhibitory concentration (IC50), causing a 50% decrease in cell proliferation, and was determined against murine leukemia L1210, human T-lymphocyte CEM and human cervix carcinoma HeLa cells (Table 1).
# (§2) All assays were performed in 96-well microtiter plates. To each well were added (5−7.5) × 10^4 tumor cells and a given amount of the test compound. The cells were allowed to proliferate for 48 h (murine leukemia L1210 cells) or 72 h (human lymphocytic CEM and human cervix carcinoma HeLa cells) at 37 °C in a humidified CO2-controlled atmosphere. At the end of the incubation period, the cells were counted in a Coulter counter. The IC50 (50% inhibitory concentration) was defined as the concentration of the compound that inhibited cell proliferation by 50%.
# [2] = system: human T-lymphocyte CEM cells; assay: Cytostatic activity: inhibition of proliferation of human T-lymphocyte CEM cells; assay type: cell-based; settings: read-out: IC50 (CEM)
# Protocol: as §1, §2
# [3] = system: human cervix carcinoma HeLa cells; assay: Cytostatic activity: inhibition of proliferation of human cervix carcinoma HeLa cells; assay type: cell-based; settings: read-out: IC50 (HeLa)
# Protocol: as §1, §2
# thymidine phosphorylase = system: thymidine phosphorylase; set-up: method as in PMID 22372816; settings: cited from earlier work
# [4] = Mus musculus, L1210, 48 h, murine leukemia L1210 cells, 48 h proliferation, Coulter counter, read-out: IC50 (L1210)
# [5] = CCRF-CEM, human T-lymphocyte CEM cells, 72 h proliferation, Coulter counter
# [6] = human cervix carcinoma HeLa cells, 72 h proliferation, Coulter counter
# [7] = Mus musculus, L1210, range over both L1210 and CEM cells and both 17k isomers, read-out: IC50 against proliferation of L1210 and CEM cell lines (range given)
# [8] = range over both L1210 and CEM cells and both 17k isomers, read-out: IC50 against proliferation of L1210 and CEM cell lines (range given)
# [9] = Mus musculus, L1210, 48 h, read-out: IC50 (L1210)
Compound,"IC50 [1, 9] [µM]","IC50 ([2]; Homo sapiens, CCRF-CEM, 72 h) [µM]","IC50 ([3]; Homo sapiens, HeLa, 72 h) [µM]",other results
"O=c1[nH]cc(F)c(=O)[nH]1 [5-fluorouracil, reference compound]",–,–,–,"IC50 [1, 4]: 0.33 ± 0.17 µM; IC50 [2, 5]: 18 ± 5 µM; IC50 [3, 6]: 0.54 ± 0.12 µM"
"Nc1nc(Cl)c2ncn(Cc3cn(C[C@H](OCc4ccccc4)[C@H](O)P(=O)(OCc4ccccc4)OCc4ccccc4)nn3)c2n1 [(1R,2S)-17k, (1R,2S)-Dibenzyl 3-{4-[(2-amino-6-chloro-9H-purin-9-yl)methyl]-1H-1,2,3-triazol-1-yl}-2-benzyloxy-1-hydroxypropylphosphonate]",–,–,–,"IC50 [1, 4]: 21 ± 2 µM; IC50 [1, 7]: 15 to 30 µM; IC50 [1, 8]: 16 to 30 µM; IC50 [2, 5]: 26 ± 8 µM; IC50 [3, 6]: 90 ± 33 µM"
"Nc1nc(Cl)c2ncn(Cc3cn(C[C@H](OCc4ccccc4)[C@@H](O)P(=O)(OCc4ccccc4)OCc4ccccc4)nn3)c2n1 [(1S,2S)-17k, (1S,2S)-Dibenzyl 3-{4-[(2-amino-6-chloro-9H-purin-9-yl)methyl]-1H-1,2,3-triazol-1-yl}-2-benzyloxy-1-hydroxypropylphosphonate]",–,–,–,"IC50 [1, 4]: 16 ± 6 µM; IC50 [1, 7]: 15 to 30 µM; IC50 [1, 8]: 16 to 30 µM; IC50 [2, 5]: 30 ± 16 µM; melting point: 76 to 78 °C; IC50 [3, 6]: 84 ± 12 µM"
Nc1nc2c(ncn2Cc2cn(CCCCC(F)(F)P(=O)(O)O)nn2)c(=O)[nH]1 [Compound 13],–,–,–,Inhibitory activity against thymidine phosphorylase (thymidine phosphorylase): inhibitory activity
"CCOP(=O)(Cn1cc(Cn2cnc3c(=O)[nH]c(N)nc32)nn1)OCC [Compound 16a, Diethyl {4-[(2-amino-6-oxo-1,6-dihydro-9H-purin-9-yl)methyl]-1H-1,2,3-triazol-1-yl}methylphosphonate]",> 250,> 250,> 250,–
"CCOP(=O)(CCn1cc(Cn2cnc3c(=O)[nH]c(N)nc32)nn1)OCC [Compound 16b, Diethyl 2-{4-[(2-amino-6-oxo-1,6-dihydro-9H-purin-9-yl)methyl]-1H-1,2,3-triazol-1-yl}ethylphosphonate]",> 250,> 250,> 250,–
"CCOP(=O)(CCCn1cc(Cn2cnc3c(=O)[nH]c(N)nc32)nn1)OCC [Compound 16c, Diethyl 3-{4-[(2-amino-6-oxo-1,6-dihydro-9H-purin-9-yl)methyl]-1H-1,2,3-triazol-1-yl}propylphosphonate]",> 250,> 250,138 ± 52,–
"CCOP(=O)(CCCCn1cc(Cn2cnc3c(=O)[nH]c(N)nc32)nn1)OCC [Compound 16d, Diethyl 4-{4-[(2-amino-6-oxo-1,6-dihydro-9H-purin-9-yl)methyl]-1H-1,2,3-triazol-1-yl}butylphosphonate]",> 250,> 250,148 ± 25,–
"CCOP(=O)(OCC)C(O)Cn1cc(Cn2cnc3c(=O)[nH]c(N)nc32)nn1 (stereo not shown) [Compound 16e, Diethyl 2-{4-[(2-amino-6-oxo-1,6-dihydro-9H-purin-9-yl)methyl]-1H-1,2,3-triazol-1-yl}-1-hydroxyethylphosphonate]",> 250,> 250,206 ± 49,melting point: > 265 °C
"CCOP(=O)(CC(O)Cn1cc(Cn2cnc3c(=O)[nH]c(N)nc32)nn1)OCC (stereo not shown) [Compound 16f, Diethyl 3-{4-[(2-amino-6-oxo-1,6-dihydro-9H-purin-9-yl)methyl]-1H-1,2,3-triazol-1-yl}-2-hydroxypropylphosphonate]",> 250,> 250,195 ± 78,–
"CCOP(=O)(OCC)C(O)CCn1cc(Cn2cnc3c(=O)[nH]c(N)nc32)nn1 (stereo not shown) [Compound 16g, Diethyl 3-{4-[(2-amino-6-oxo-1,6-dihydro-9H-purin-9-yl)methyl]-1H-1,2,3-triazol-1-yl}-1-hydroxypropylphosphonate]",> 250,> 250,185 ± 35,–
"CCOP(=O)(COCCn1cc(Cn2cnc3c(=O)[nH]c(N)nc32)nn1)OCC [Compound 16h, Diethyl 2-{4-[(2-amino-6-oxo-1,6-dihydro-9H-purin-9-yl)methyl]-1H-1,2,3-triazol-1-yl}ethoxymethyphosphonate]",> 250,> 250,≥ 250,melting point: 89 to 92 °C
"CCOP(=O)(CCOCCn1cc(Cn2cnc3c(=O)[nH]c(N)nc32)nn1)OCC [Compound 16i, Diethyl 2-{4-[(2-amino-6-oxo-1,6-dihydro-9H-purin-9-yl)methyl]-1H-1,2,3-triazol-1-yl}ethoxyethyphosphonate]",> 250,> 250,210 ± 13,–
"CCOP(=O)(CNC(=O)Cn1cc(Cn2cnc3c(=O)[nH]c(N)nc32)nn1)OCC [Compound 16j, Diethyl 2-{4-[(2-amino-6-oxo-1,6-dihydro-9H-purin-9-yl)methyl]-1H-1,2,3-triazol-1-yl}acetamidomethyphosphonate]",> 250,> 250,212 ± 54,melting point: > 230 °C
"CCOP(=O)(Cn1cc(Cn2cnc3c(Cl)nc(N)nc32)nn1)OCC [Compound 17a, Diethyl {4-[(2-amino-6-chloro-9H-purin-9-yl)methyl]-1H-1,2,3-triazol-1-yl}methylphosphonate]",283 ± 17,≥ 250,≥ 250,–
"CCOP(=O)(CCn1cc(Cn2cnc3c(Cl)nc(N)nc32)nn1)OCC [Compound 17b, Diethyl 2-{4-[(2-amino-6-chloro-9H-purin-9-yl)methyl]-1H-1,2,3-triazol-1-yl}ethylphosphonate]",≥ 250,> 250,227 ± 32,–
"CCOP(=O)(CCCn1cc(Cn2cnc3c(Cl)nc(N)nc32)nn1)OCC [Compound 17c, Diethyl 3-{4-[(2-amino-6-chloro-9H-purin-9-yl)methyl]-1H-1,2,3-triazol-1-yl}propylphosphonate]",227 ± 32,> 250,≥ 250,–
"CCOP(=O)(CCCCn1cc(Cn2cnc3c(Cl)nc(N)nc32)nn1)OCC [Compound 17d, Diethyl 4-{4-[(2-amino-6-chloro-9H-purin-9-yl)methyl]-1H-1,2,3-triazol-1-yl}butylphosphonate]",> 250,> 250,≥ 250,–
"CCOP(=O)(OCC)C(O)Cn1cc(Cn2cnc3c(Cl)nc(N)nc32)nn1 (stereo not shown) [Compound 17e, Diethyl 2-{4-[(2-amino-6-chloro-9H-purin-9-yl)methyl]-1H-1,2,3-triazol-1-yl}-1-hydroxyethylphosphonate]",> 250,> 250,> 250,melting point: 174 to 175 °C
"CCOP(=O)(CC(O)Cn1cc(Cn2cnc3c(Cl)nc(N)nc32)nn1)OCC (stereo not shown) [Compound 17f, Diethyl 3-{4-[(2-amino-6-chloro-9H-purin-9-yl)methyl]-1H-1,2,3-triazol-1-yl}-2-hydroxypropylphosphonate]",> 250,> 250,> 250,–
"CCOP(=O)(OCC)C(O)CCn1cc(Cn2cnc3c(Cl)nc(N)nc32)nn1 (stereo not shown) [Compound 17g, Diethyl 3-{4-[(2-amino-6-chloro-9H-purin-9-yl)methyl]-1H-1,2,3-triazol-1-yl}-1-hydroxypropylphosphonate]",> 250,> 250,> 250,–
"CCOP(=O)(COCCn1cc(Cn2cnc3c(Cl)nc(N)nc32)nn1)OCC [Compound 17h, Diethyl 2-{4-[(2-amino-6-chloro-9H-purin-9-yl)methyl]-1H-1,2,3-triazol-1-yl}-ethoxymethylphosphonate]",> 250,≥ 250,> 250,–
"CCOP(=O)(CCOCCn1cc(Cn2cnc3c(Cl)nc(N)nc32)nn1)OCC [Compound 17i, Diethyl 2-{4-[(2-amino-6-chloro-9H-purin-9-yl)methyl]-1H-1,2,3-triazol-1-yl}-ethoxyethylphosphonate]",> 250,> 250,> 250,–
"Diethyl 2-{4-[(2-amino-6-chloro-9H-purin-9-yl)methyl]-1H-1,2,3-triazol-1-yl}-acetamidoethylphosphonate [Compound 17j]",–,–,–,"IC50 ([1]; murine leukemia L1210 cells, 48 h proliferation, Coulter counter, read-out: IC50 (L1210)): > 250 µM; IC50 ([2]; human T-lymphocyte CEM cells, 72 h proliferation, Coulter counter): > 250 µM; IC50 [3, 6]: > 250 µM"
